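Each compound was tested at five concentrations against cells in 96-well plates for 48 hours. Definition used: TGI = concentration required for complete inhibition of growth.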
Key:
Assay in all cases: inhibition of tumour cell growth, NCI panel, 48 h
NCI-H460 lung = tested on: NCI-H460 lung
RPMI-8226 leukemia = tested on: RPMI-8226 leukemia
SN12C renal = tested on: SN12C renal
COLO 205 colon = tested on: COLO 205 colon
LOX IMVI melanoma = tested on: LOX IMVI melanoma
MCF7 breast = tested on: MCF7 breast
T-47D breast = tested on: T-47D breast
NCI-H226 lung = tested on: NCI-H226 lung
ACHN renal = tested on: ACHN renal
MDA-N = tested on: MDA-N
RXF 393 renal = tested on: RXF 393 renal
K-562 leukemia = tested on: K-562 leukemia
786-0 renal = tested on: 786-0 renal
SF-268 CNS = tested on: SF-268 CNS
SK-MEL-28 melanoma = tested on: SK-MEL-28 melanoma
OVCAR-8 ovarian = tested on: OVCAR-8 ovarian
EKVX NSCLC = tested on: EKVX NSCLC
MALME-3M melanoma = tested on: MALME-3M melanoma
A498 renal = tested on: A498 renal
DU-145 prostate = tested on: DU-145 prostate
SF-539 CNS = tested on: SF-539 CNS
HCC-2998 colon = tested on: HCC-2998 colon
NCI-H522 lung = tested on: NCI-H522 lung
OVCAR-5 ovarian = tested on: OVCAR-5 ovarian
U251 CNS = tested on: U251 CNS
HL-60(TB) leukemia = tested on: HL-60(TB) leukemia
PC-3 prostate = tested on: PC-3 prostate
M14 melanoma = tested on: M14 melanoma
CAKI-1 renal = tested on: CAKI-1 renal
MOLT-4 leukemia = tested on: MOLT-4 leukemia
CCRF-CEM leukemia = tested on: CCRF-CEM leukemia
TK-10 renal = tested on: TK-10 renal
HT29 colon = tested on: HT29 colon
BT-549 breast = tested on: BT-549 breast
OVCAR-3 ovarian = tested on: OVCAR-3 ovarian
HCT-15 colon = tested on: HCT-15 colon
KM12 colon = tested on: KM12 colon
HS 578T breast = tested on: HS 578T breast
NCI/ADR-RES ovarian = tested on: NCI/ADR-RES ovarian
UACC-257 melanoma = tested on: UACC-257 melanoma
SK-MEL-2 melanoma = tested on: SK-MEL-2 melanoma
NCI-H23 lung = tested on: NCI-H23 lung
SW-620 colon = tested on: SW-620 colon
IGROV1 ovarian = tested on: IGROV1 ovarian
MDA-MB-435 = tested on: MDA-MB-435
MDA-MB-231 breast = tested on: MDA-MB-231 breast
SK-MEL-5 melanoma = tested on: SK-MEL-5 melanoma
SK-OV-3 ovarian = tested on: SK-OV-3 ovarian
OVCAR-4 ovarian = tested on: OVCAR-4 ovarian
HOP-92 NSCLC = tested on: HOP-92 NSCLC
SF-295 CNS = tested on: SF-295 CNS
UACC-62 melanoma = tested on: UACC-62 melanoma
SNB-75 CNS = tested on: SNB-75 CNS
HOP-62 NSCLC = tested on: HOP-62 NSCLC
SNB-19 CNS = tested on: SNB-19 CNS
UO-31 renal = tested on: UO-31 renal
A549 NSCLC = tested on: A549 NSCLC
HCT-116 colon = tested on: HCT-116 colon
SR leukemia = tested on: SR leukemia

SMILES: O=c1oc2cc(O)ccc2c(O)c1C(c1ccc(/C=C/c2ccccc2)cc1)c1c(O)c2ccc(O)cc2oc1=O
- TGI (NCI-H460 lung): > 100 µM
- TGI (RPMI-8226 leukemia): > 100 µM
- TGI (SN12C renal): > 100 µM
- TGI (COLO 205 colon): > 100 µM
- TGI (LOX IMVI melanoma): > 100 µM
- TGI (MCF7 breast): > 100 µM
- TGI (T-47D breast): > 100 µM
- TGI (NCI-H226 lung): > 100 µM
- TGI (ACHN renal): > 100 µM
- TGI (MDA-N): > 100 µM
- TGI (RXF 393 renal): > 100 µM
- TGI (K-562 leukemia): > 100 µM
- TGI (786-0 renal): > 100 µM
- TGI (SF-268 CNS): > 100 µM
- TGI (SK-MEL-28 melanoma): 60.5 µM
- TGI (OVCAR-8 ovarian): > 100 µM
- TGI (EKVX NSCLC): > 100 µM
- TGI (MALME-3M melanoma): > 100 µM
- TGI (A498 renal): > 100 µM
- TGI (DU-145 prostate): > 100 µM
- TGI (SF-539 CNS): > 100 µM
- TGI (HCC-2998 colon): > 100 µM
- TGI (NCI-H522 lung): > 100 µM
- TGI (OVCAR-5 ovarian): > 100 µM
- TGI (U251 CNS): > 100 µM
- TGI (HL-60(TB) leukemia): 69.6 µM
- TGI (PC-3 prostate): > 100 µM
- TGI (M14 melanoma): > 100 µM
- TGI (CAKI-1 renal): > 100 µM
- TGI (MOLT-4 leukemia): 64.1 µM
- TGI (CCRF-CEM leukemia): > 100 µM
- TGI (TK-10 renal): > 100 µM
- TGI (HT29 colon): > 100 µM
- TGI (BT-549 breast): > 100 µM
- TGI (OVCAR-3 ovarian): > 100 µM
- TGI (HCT-15 colon): > 100 µM
- TGI (KM12 colon): > 100 µM
- TGI (HS 578T breast): > 100 µM
- TGI (NCI/ADR-RES ovarian): > 100 µM
- TGI (UACC-257 melanoma): > 100 µM
- TGI (SK-MEL-2 melanoma): > 100 µM
- TGI (NCI-H23 lung): > 100 µM
- TGI (SW-620 colon): > 100 µM
- TGI (IGROV1 ovarian): > 100 µM
- TGI (MDA-MB-435): > 100 µM
- TGI (MDA-MB-231 breast): > 100 µM
- TGI (SK-MEL-5 melanoma): 95 µM
- TGI (SK-OV-3 ovarian): > 100 µM
- TGI (OVCAR-4 ovarian): > 100 µM
- TGI (HOP-92 NSCLC): > 100 µM
- TGI (SF-295 CNS): > 100 µM
- TGI (UACC-62 melanoma): > 100 µM
- TGI (SNB-75 CNS): > 100 µM
- TGI (HOP-62 NSCLC): > 100 µM
- TGI (SNB-19 CNS): > 100 µM
- TGI (UO-31 renal): > 100 µM
- TGI (A549 NSCLC): > 100 µM
- TGI (HCT-116 colon): > 100 µM

SMILES: CN(C)CCC(C#N)(c1ccccc1)c1ccccc1
- TGI (NCI-H460 lung): > 100 µM
- TGI (RPMI-8226 leukemia): 80.5 µM
- TGI (SN12C renal): > 100 µM
- TGI (COLO 205 colon): > 100 µM
- TGI (MCF7 breast): > 100 µM
- TGI (T-47D breast): > 100 µM
- TGI (NCI-H226 lung): > 100 µM
- TGI (ACHN renal): > 100 µM
- TGI (MDA-N): > 100 µM
- TGI (RXF 393 renal): > 100 µM
- TGI (K-562 leukemia): 22.6 µM
- TGI (786-0 renal): > 100 µM
- TGI (SF-268 CNS): > 100 µM
- TGI (SK-MEL-28 melanoma): 58.4 µM
- TGI (OVCAR-8 ovarian): > 100 µM
- TGI (EKVX NSCLC): > 100 µM
- TGI (MALME-3M melanoma): > 100 µM
- TGI (A498 renal): > 100 µM
- TGI (DU-145 prostate): > 100 µM
- TGI (SF-539 CNS): > 100 µM
- TGI (HCC-2998 colon): 34.1 µM
- TGI (NCI-H522 lung): > 100 µM
- TGI (OVCAR-5 ovarian): > 100 µM
- TGI (U251 CNS): > 100 µM
- TGI (HL-60(TB) leukemia): 65.3 µM
- TGI (PC-3 prostate): > 100 µM
- TGI (M14 melanoma): 50 µM
- TGI (CAKI-1 renal): > 100 µM
- TGI (TK-10 renal): > 100 µM
- TGI (HT29 colon): > 100 µM
- TGI (BT-549 breast): > 100 µM
- TGI (OVCAR-3 ovarian): > 100 µM
- TGI (HCT-15 colon): > 100 µM
- TGI (KM12 colon): > 100 µM
- TGI (HS 578T breast): > 100 µM
- TGI (NCI/ADR-RES ovarian): > 100 µM
- TGI (UACC-257 melanoma): 59.2 µM
- TGI (SK-MEL-2 melanoma): > 100 µM
- TGI (NCI-H23 lung): > 100 µM
- TGI (SW-620 colon): > 100 µM
- TGI (IGROV1 ovarian): > 100 µM
- TGI (MDA-MB-435): > 100 µM
- TGI (MDA-MB-231 breast): > 100 µM
- TGI (SK-MEL-5 melanoma): 51.1 µM
- TGI (SK-OV-3 ovarian): > 100 µM
- TGI (OVCAR-4 ovarian): > 100 µM
- TGI (HOP-92 NSCLC): 66.6 µM
- TGI (SF-295 CNS): > 100 µM
- TGI (UACC-62 melanoma): > 100 µM
- TGI (SNB-75 CNS): > 100 µM
- TGI (HOP-62 NSCLC): > 100 µM
- TGI (SNB-19 CNS): > 100 µM
- TGI (UO-31 renal): > 100 µM
- TGI (A549 NSCLC): > 100 µM
- TGI (HCT-116 colon): > 100 µM

SMILES: C[C@@H](NC(=O)Nc1cccc(C(=O)Nc2cc(C(C)(C)C)ccc2C(=O)O)n1)c1ccccc1
- TGI (NCI-H460 lung): > 100 µM
- TGI (RPMI-8226 leukemia): > 100 µM
- TGI (SN12C renal): > 100 µM
- TGI (COLO 205 colon): 60.6 µM
- TGI (LOX IMVI melanoma): 36.7 µM
- TGI (MCF7 breast): 47.9 µM
- TGI (T-47D breast): > 100 µM
- TGI (NCI-H226 lung): > 100 µM
- TGI (ACHN renal): > 100 µM
- TGI (MDA-N): > 100 µM
- TGI (RXF 393 renal): 38.5 µM
- TGI (SR leukemia): > 100 µM
- TGI (K-562 leukemia): > 100 µM
- TGI (786-0 renal): > 100 µM
- TGI (SF-268 CNS): > 100 µM
- TGI (SK-MEL-28 melanoma): > 100 µM
- TGI (OVCAR-8 ovarian): > 100 µM
- TGI (EKVX NSCLC): > 100 µM
- TGI (MALME-3M melanoma): > 100 µM
- TGI (A498 renal): > 100 µM
- TGI (DU-145 prostate): > 100 µM
- TGI (HCC-2998 colon): > 100 µM
- TGI (NCI-H522 lung): > 100 µM
- TGI (OVCAR-5 ovarian): > 100 µM
- TGI (U251 CNS): 37.8 µM
- TGI (HL-60(TB) leukemia): > 100 µM
- TGI (PC-3 prostate): 79.1 µM
- TGI (M14 melanoma): > 100 µM
- TGI (CAKI-1 renal): > 100 µM
- TGI (MOLT-4 leukemia): > 100 µM
- TGI (HT29 colon): > 100 µM
- TGI (BT-549 breast): > 100 µM
- TGI (OVCAR-3 ovarian): 51.1 µM
- TGI (HCT-15 colon): > 100 µM
- TGI (KM12 colon): > 100 µM
- TGI (HS 578T breast): > 100 µM
- TGI (NCI/ADR-RES ovarian): > 100 µM
- TGI (SK-MEL-2 melanoma): 39 µM
- TGI (NCI-H23 lung): > 100 µM
- TGI (SW-620 colon): > 100 µM
- TGI (IGROV1 ovarian): > 100 µM
- TGI (MDA-MB-435): > 100 µM
- TGI (MDA-MB-231 breast): 50 µM
- TGI (SK-MEL-5 melanoma): > 100 µM
- TGI (SK-OV-3 ovarian): > 100 µM
- TGI (OVCAR-4 ovarian): > 100 µM
- TGI (SF-295 CNS): 76.2 µM
- TGI (UACC-62 melanoma): 50.9 µM
- TGI (SNB-75 CNS): > 100 µM
- TGI (HOP-62 NSCLC): 86.1 µM
- TGI (SNB-19 CNS): > 100 µM
- TGI (UO-31 renal): > 100 µM
- TGI (A549 NSCLC): > 100 µM
- TGI (HCT-116 colon): 44.1 µM

— PubChem BioAssay (NCI)
